Read-outs that look alike come from different tables or passages of the source.
Target: T1, MRGPRX4 (Homo sapiens, UniProt Q96LA9)
T1 construct: expressed in transfected cells; host or cells: HEK293T
Assay: IP1 accumulation HTRF assay, MRGPRX4;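 for IP1 accumulation, dose-response (Figure 1a): 0% is unstimulated mock-transfected cells and 100% is fully stimulated MRGPRX4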
Format: cell-based
Conditions: 2 h; for activation at 16 µM: log [agonist] (M) -4.79588; for activation at 3.2 µM: log [agonist] (M) -5.49485; for activation at 0.64 µM: log [agonist] (M) -6.19382; for activation at 0.128 µM: log [agonist] (M) -6.89279; for activation at 0.0256 µM: log [agonist] (M) -7.59176

[1] = SP-FLAG-Nluc-HT7-MRGX4_Tet-GFP10-1D4, read-out: normalized IP1 accumulation
[2] = SP-FLAG-Nluc-HT7-MRGX4_Tet-GFP10-1D4 no dox, read-out: normalized IP1 accumulation

T1 sequence (Q96LA9 whole entry): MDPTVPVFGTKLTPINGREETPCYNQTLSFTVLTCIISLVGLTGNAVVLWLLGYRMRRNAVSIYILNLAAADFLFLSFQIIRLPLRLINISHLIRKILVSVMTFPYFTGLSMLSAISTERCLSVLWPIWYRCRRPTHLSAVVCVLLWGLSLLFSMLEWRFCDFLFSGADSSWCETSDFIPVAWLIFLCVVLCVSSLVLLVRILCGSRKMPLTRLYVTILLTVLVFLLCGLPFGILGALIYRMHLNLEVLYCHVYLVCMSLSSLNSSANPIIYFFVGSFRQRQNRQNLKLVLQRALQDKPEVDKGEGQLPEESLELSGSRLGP

Structure (SMILES): CC(C)[C@H]1CC[C@H](C(=O)N[C@H](Cc2ccccc2)C(=O)O)CC1 [Nateglinide]
- activation at 100 µM (HA-MRGX4-1D4, log [agonist] (M) -4, read-out: normalized IP1 accumulation): 84.6%
- activation at 20 µM (HA-MRGX4-1D4, log [agonist] (M) -4.69897, read-out: normalized IP1 accumulation): 63.4%
- activation at 4 µM (HA-MRGX4-1D4, log [agonist] (M) -5.39794, read-out: normalized IP1 accumulation): 30.8%
- activation at 0.8 µM (HA-MRGX4-1D4, log [agonist] (M) -6.09691, read-out: normalized IP1 accumulation): 17.7%
- activation at […] (HA-MRGX4-1D4, log [agonist] (M) -6.79588, read-out: normalized IP1 accumulation): 12.4%
- activation at 0.032 µM (HA-MRGX4-1D4, log [agonist] (M) -7.49485, read-out: normalized IP1 accumulation): 12.5%
- activation at 100 µM (MRGPRX4: 0.25pg/cell, log [Nateglinide] (M) -4, Fig S1b, read-out: IP1 accumulation): 76.9%
- activation at 20 µM (MRGPRX4: 0.25pg/cell, log [Nateglinide] (M) -4.69897, Fig S1b, read-out: IP1 accumulation): 53.7%
- activation at 4 µM (MRGPRX4: 0.25pg/cell, log [Nateglinide] (M) -5.39794, Fig S1b, read-out: IP1 accumulation): 21.2%
- activation at […] (MRGPRX4: 0.25pg/cell, log [Nateglinide] (M) -6.79588, Fig S1b, read-out: IP1 accumulation): 3.43%
- activation at 0.032 µM (MRGPRX4: 0.25pg/cell, log [Nateglinide] (M) -7.49485, Fig S1b, read-out: IP1 accumulation): 3.78%
- activation at 100 µM (MRGPRX4: 0.5pg/cell, log [Nateglinide] (M) -4, Fig S1b, read-out: IP1 accumulation): 92.5%
- activation at 20 µM (MRGPRX4: 0.5pg/cell, log [Nateglinide] (M) -4.69897, Fig S1b, read-out: IP1 accumulation): 65.9%
- activation at 4 µM (MRGPRX4: 0.5pg/cell, log [Nateglinide] (M) -5.39794, Fig S1b, read-out: IP1 accumulation): 33%
- activation at 0.8 µM (MRGPRX4: 0.5pg/cell, log [Nateglinide] (M) -6.09691, Fig S1b, read-out: IP1 accumulation): 11.8%
- activation at […] (MRGPRX4: 0.5pg/cell, log [Nateglinide] (M) -6.79588, Fig S1b, read-out: IP1 accumulation): 6.22%
- activation at 0.032 µM (MRGPRX4: 0.5pg/cell, log [Nateglinide] (M) -7.49485, Fig S1b, read-out: IP1 accumulation): 5.53%
- activation at 100 µM (MRGPRX4: 1pg/cell, log [Nateglinide] (M) -4, Fig S1b, read-out: IP1 accumulation): 92.1%
- activation at 20 µM (MRGPRX4: 1pg/cell, log [Nateglinide] (M) -4.69897, Fig S1b, read-out: IP1 accumulation): 75.4%
- activation at 4 µM (MRGPRX4: 1pg/cell, log [Nateglinide] (M) -5.39794, Fig S1b, read-out: IP1 accumulation): 37.9%
- activation at 0.8 µM (MRGPRX4: 1pg/cell, log [Nateglinide] (M) -6.09691, Fig S1b, read-out: IP1 accumulation): 17.7%
- activation at […] (MRGPRX4: 1pg/cell, log [Nateglinide] (M) -6.79588, Fig S1b, read-out: IP1 accumulation): 11.7%
- activation at 0.032 µM (MRGPRX4: 1pg/cell, log [Nateglinide] (M) -7.49485, Fig S1b, read-out: IP1 accumulation): 9.46%
- activation at 100 µM (MRGPRX4: 2pg/cell, log [Nateglinide] (M) -4, Fig S1b/c, read-out: IP1 accumulation): 100%
- activation at 20 µM (MRGPRX4: 2pg/cell, log [Nateglinide] (M) -4.69897, Fig S1b/c, read-out: IP1 accumulation): 88.5%
- activation at 4 µM (MRGPRX4: 2pg/cell, log [Nateglinide] (M) -5.39794, Fig S1b/c, read-out: IP1 accumulation): 44.1%
- activation at 0.8 µM (MRGPRX4: 2pg/cell, log [Nateglinide] (M) -6.09691, Fig S1b/c, read-out: IP1 accumulation): 21.4%
- activation at […] (MRGPRX4: 2pg/cell, log [Nateglinide] (M) -6.79588, Fig S1b/c, read-out: IP1 accumulation): 13.8%
- activation at 0.032 µM (MRGPRX4: 2pg/cell, log [Nateglinide] (M) -7.49485, Fig S1b/c, read-out: IP1 accumulation): 12.6%
- activation at 100 µM (MRGPRX4: […], log [Nateglinide] (M) -4, Fig S1b, read-out: IP1 accumulation): 68.7%
- activation at 20 µM (MRGPRX4: […], log [Nateglinide] (M) -4.69897, Fig S1b, read-out: IP1 accumulation): 45%
- activation at 4 µM (MRGPRX4: […], log [Nateglinide] (M) -5.39794, Fig S1b, read-out: IP1 accumulation): 17.6%
- activation at 0.8 µM (MRGPRX4: […], log [Nateglinide] (M) -6.09691, Fig S1b, read-out: IP1 accumulation): 5.45%
- activation at 0.032 µM (MRGPRX4: […], log [Nateglinide] (M) -7.49485, Fig S1b, read-out: IP1 accumulation): 2.09%
- activation at 30 µM (MRGPRX4, nateglinide 30uM, Fig S1d): 86.4%
- activation at 100 µM (MRGPRX4, nateglinide 100uM, Fig S1d, read-out: IP1 accumulation): 100%
- activation at 100 µM (MRGPRX4 alone, log [Nateglinide] (M) -4, Fig S3a-c, read-out: IP1 accumulation): 100%
- activation at 20 µM (MRGPRX4 alone, log [Nateglinide] (M) -4.69897, Fig S3a-c, read-out: IP1 accumulation): 85.7%
- activation at 4 µM (MRGPRX4 alone, log [Nateglinide] (M) -5.39794, Fig S3a-c, read-out: IP1 accumulation): 46.2%
- activation at 0.8 µM (MRGPRX4 alone, log [Nateglinide] (M) -6.09691, Fig S3a-c, read-out: IP1 accumulation): 23%
- activation at […] (MRGPRX4 alone, log [Nateglinide] (M) -6.79588, Fig S3a-c, read-out: IP1 accumulation): 17.8%
- activation at 0.032 µM (MRGPRX4 alone, log [Nateglinide] (M) -7.49485, Fig S3a-c, read-out: IP1 accumulation): 17.4%
- activation at 30 µM (MRGX4 + Ng, 30uM, U73122 30uM, Fig S1e): 21.3%
- activation at 30 µM (MRGX4 + Ng, 30uM, buffer, Fig S1e): 84.5%
- activation at 100 µM (MRGX4 + Ng, 100uM, U73122 30uM, Fig S1e, read-out: IP1 accumulation): 31%
- activation at 100 µM (MRGX4 + Ng, 100uM, buffer, Fig S1e, read-out: IP1 accumulation): 100%
- activation at 80 µM (SP-FLAG-Nluc-HT7-MRGX4_Tet-GFP10-1D4, log [agonist] (M) -4.09691, read-out: normalized IP1 accumulation): 49.1%
- activation at 16 µM [1]: 42%
- activation at 3.2 µM [1]: 23.5%
- activation at 0.64 µM [1]: 12.9%
- activation at 0.128 µM [1]: 10.3%
- activation at 0.0256 µM [1]: 9.54%
- activation at 16 µM [2]: 10.5%
- activation at 3.2 µM [2]: 7.88%
- activation at 0.64 µM [2]: 7.83%
- activation at 0.128 µM [2]: 7.62%
- activation at 0.0256 µM [2]: 8.15%
- activation at 100 µM (SP-Flag-MRGX4-1D4, log [agonist] (M) -4, read-out: normalized IP1 accumulation): 85.6%
- activation at 20 µM (SP-Flag-MRGX4-1D4, log [agonist] (M) -4.69897, read-out: normalized IP1 accumulation): 66.9%
- activation at 4 µM (SP-Flag-MRGX4-1D4, log [agonist] (M) -5.39794, read-out: normalized IP1 accumulation): 28.3%
- activation at 0.8 µM (SP-Flag-MRGX4-1D4, log [agonist] (M) -6.09691, read-out: normalized IP1 accumulation): 11.8%
- activation at […] (SP-Flag-MRGX4-1D4, log [agonist] (M) -6.79588, read-out: normalized IP1 accumulation): 7.74%
- activation at 0.032 µM (SP-Flag-MRGX4-1D4, log [agonist] (M) -7.49485, read-out: normalized IP1 accumulation): 8.22%
- activation at 100 µM (SP-Flag-MRGX4-GFP10-1D4, log [agonist] (M) -4, read-out: normalized IP1 accumulation): 100%
- activation at 20 µM (SP-Flag-MRGX4-GFP10-1D4, log [agonist] (M) -4.69897, read-out: normalized IP1 accumulation): 74%
- activation at 4 µM (SP-Flag-MRGX4-GFP10-1D4, log [agonist] (M) -5.39794, read-out: normalized IP1 accumulation): 34.7%
- activation at 0.8 µM (SP-Flag-MRGX4-GFP10-1D4, log [agonist] (M) -6.09691, read-out: normalized IP1 accumulation): 13.4%
- activation at […] (SP-Flag-MRGX4-GFP10-1D4, log [agonist] (M) -6.79588, read-out: normalized IP1 accumulation): 8.46%
- activation at 0.032 µM (SP-Flag-MRGX4-GFP10-1D4, log [agonist] (M) -7.49485, read-out: normalized IP1 accumulation): 8.07%
- activation at 3.7037 µM (log [agonist] (M) -5.43136, MRGX4-transfected, individual replicates, read-out: IP1 accumulation, dose-response (Figure 1a)): 40%
- activation at 0.4115 µM (log [agonist] (M) -6.38561, MRGX4-transfected, individual replicates, read-out: IP1 accumulation, dose-response (Figure 1a)): 19.1%
- activation at 100 µM (log [nateglinide] (M) -4, Dox 13 ng/mL, Supplementary Figure 5a, read-out: IP1 accumulation (normalized)): 79.6%
- activation at 100 µM (log [nateglinide] (M) -4, Dox 13 ng/mL, Supplementary Figure 5b, read-out: IP1 accumulation (normalized)): 13.6%
- activation at 100 µM (log [nateglinide] (M) -4, Dox 13 ng/mL, Supplementary Figure 5c, read-out: IP1 accumulation (normalized)): 46.6%
- activation at 100 µM (log [nateglinide] (M) -4, Dox 40 ng/mL, Supplementary Figure 5a, read-out: IP1 accumulation (normalized)): 82.2%

Source: PMC10165273, “Itch receptor MRGPRX4 interacts with the receptor activity–modifying proteins” (The Journal of Biological Chemistry, 2023)
